Read-outs that look alike come from different tables or passages of the source.
Assays:
[1] = target: T1, recombinant human CK2 (Homo sapiens, UniProt P68400); test: CK2 assay (cell-free, 33P-ATP filter plate); type: biochemical
T1 construct: purchased Upstate
Method: Modulatory activity of compounds described herein was assessed in vitro in cell-free CK2 assays by the following method.
Test compounds in aqueous solution were added at a volume of 10 microliters, to a reaction mixture comprising 10 microliters Assay Dilution Buffer (ADB; 20 mM MOPS, pH 7.2, 25 mM beta-glycerolphosphate, 5 mM EGTA, 1 mM sodium orthovanadate and 1 mM dithiothreitol), 10 microliters of substrate peptide (RRRDDDSDDD, dissolved in ADB at a concentration of 1 mM), 10 microliters of recombinant human CK2 (25 ng dissolved in ADB; Upstate). Reactions were initiated by the addition of 10 microliters of ATP Solution (90% 75 mM MgCl2, 75 micromolar ATP dissolved in ADB; 10% [γ-^33P]ATP (stock 1 mCi/100 μl; 3000 Ci/mmol (Perkin Elmer) and maintained for 10 minutes at 30 degrees C. The reactions were quenched with 100 microliters of 0.75% phosphoric acid, then transferred to and filtered through a phosphocellulose filter plate (Millipore). After washing each well 5 times with 0.75% phosphoric acid, the plate was dried under vacuum for 5 min and, following the addition of 15 ul of scintillation fluid to each well, the residual radioactivity was measured using a Wallac luminescence counter.

[2] = target: recombinant PIM-1 (Homo sapiens, UniProt P11309); test: PIM-1 assay (33P-ATP filter plate); type: biochemical; details: read-out: PIM1: IC50
Method: The following procedure was used to assay the PIM-1 kinase activity of compounds of the invention. Other methods for assaying PIM-1 and other PIM kinases, as well as methods to assay for activity against the various kinases are known in the art.
In a final reaction volume of 50 ul, recombinant PIM-1 (1 ng) was incubated with 12 mM MOPS pH 7.0, 0.4 mM EDTA, glycerol 1%, brij 35 0.002%, 2-mercaptoethanol 0.02%, BSA 0.2 mg/ml, 100 uM KKRNRTLTK, 10 mM MgAcetate, 15 uM ATP, [γ-^33P-ATP] (specific activity approx. 500 cpm/pmol), DMSO 4% and test inhibitor compound at the required concentration. The reaction was initiated by the addition of the Magnesium ATP mixture. After 40 min incubation at 23° C., the reactions were quenched by the addition of 100 ul 0.75% Phosphoric acid, and the labeled peptide collected by filtration through a phosphocellulose filter plate. The plate was washed 4 times with 0.075% phosphoric acid (100 ul per well) and then, after the addition of scintillation fluid (20 ul per well), the counts were measured by a scintillation counter.

[3] = system: K-562; test: Alamar Blue cell proliferation assay, K-562; type: cell-based; details: Homo sapiens, K562, K-562, Table 1, read-out: AB: K-562 IC50
Method: (§1) A representative cell-proliferation assay protocol using Alamar Blue dye (stored at 4° C., use 20 ul per well) is described hereafter.
(§2) a. Split and trypsinize cells.
(§3) b. Count cells using hemocytometer.
(§4) c. Plate 4,000-5,000 cells per well in 100 μl of medium and seed into a 96-well plate according to the following plate layout. Add cell culture medium only to wells B10 to B12. Wells B1 to B9 have cells but no compound added.
(§5) d. Add 100 μl of 2× drug dilution to each well in a concentration shown in the plate layout above. At the same time, add 100 μl of media into the control wells (wells B10 to B12). Total volume is 200 μl/well.
(§6) e. Incubate four (4) days at 37° C., 5% CO2 in a humidified incubator.
(§7) f. Add 20 μl Alamar Blue reagent to each well.
(§8) g. Incubate for four (4) hours at 37° C., 5% CO2 in a humidified incubator.
(§9) h. Record fluorescence at an excitation wavelength of 544 nm and emission wavelength of 590 nm using a microplate reader.
(§10) In the assays, cells are cultured with a test compound for approximately four days, the dye is then added to the cells and fluorescence of […] dye is detected after approximately four hours. Different types of cells can be utilized in the assays (e.g., HCT-116 human colorectal carcinoma cells, PC-3 human prostatic cancer cells and MiaPaca human pancreatic carcinoma cells).

[4] = system: MV-4-11; test: Alamar Blue cell proliferation assay, MV-4-11; type: cell-based; details: Homo sapiens, MV4-11, MV-4-11, Table 1, read-out: AB: MV-4-11 IC50
Method: as §1, §2, §3, §4, §5, §6, §7, §8, §9, §10

[5] = system: MDAMB231; test: Alamar Blue cell proliferation assay, MDAMB231; type: cell-based; details: Homo sapiens, MDA-MB-231, MDAMB231, Table 1, read-out: AB: MDAMB231 IC50
Method: as §1, §2, §3, §4, §5, §6, §7, §8, §9, §10

[6] = system: MiaPaca human pancreatic carcinoma cells; test: Alamar Blue cell proliferation assay, MiaPaCa; type: cell-based; details: MIA PaCa-2, Table 1, read-out: AB: MiaPaCa IC50
Method: as §1, §2, §3, §4, §5, §6, §7, §8, §9, §10

[7] = system: PC-3 human prostatic cancer cells; test: Alamar Blue cell proliferation assay, PC3; type: cell-based; details: PC-3, PC3, Table 1, read-out: AB: PC3
Method: as §1, §2, §3, §4, §5, §6, §7, §8, §9, §10

[8] = target: recombinant human PIM2 (Homo sapiens, UniProt Q9P1W9); test: PIM-2 assay (33P-ATP filter plate); type: biochemical
Method: PIM-2 Assay Method: Test compounds dissolved and diluted in DMSO (2 μl) were added to a reaction mixture comprising 10 μl of 5× Reaction Buffer (40 mM MOPS pH 7.0, 5 mM EDTA), 10 μl of recombinant human PIM2 solution (4 ng PIM-2 dissolved in dilution buffer (20 mM MOPS pH 7.0; EDTA 1 mM; 5% Glycerol; 0.01% Brij 35; […]; […] 2-mercaptoethanol; 1 mg/ml BSA)) and 8 ul of water. Reactions were initiated by the addition of 10 ul of ATP Solution (49% (15 mM MgCl2; 75 uM ATP) 1% ([γ-^33P]ATP: Stock 1 mCi/1000; 3000Ci/mmol (Perkin Elmer)) and 10 ul of substrate peptide solution (RSRSSYPAGT, dissolved in water at a concentration of 1 mM), Reactions were maintained for 10 min at 30° C. The reactions were quenched with 100 ul of 0.75% Phosphoric acid, then transferred to and filtered through a Phosphocellulose filter plate (Millipore, MSPH-N6B-50). After washing each well 4 times with 0.75% Phosphoric acid, scintillation fluid (20 uL) was added to each well and the residual radioactivity was measured using a Wallac luminescence counter.

T1 sequence (P68400 whole entry): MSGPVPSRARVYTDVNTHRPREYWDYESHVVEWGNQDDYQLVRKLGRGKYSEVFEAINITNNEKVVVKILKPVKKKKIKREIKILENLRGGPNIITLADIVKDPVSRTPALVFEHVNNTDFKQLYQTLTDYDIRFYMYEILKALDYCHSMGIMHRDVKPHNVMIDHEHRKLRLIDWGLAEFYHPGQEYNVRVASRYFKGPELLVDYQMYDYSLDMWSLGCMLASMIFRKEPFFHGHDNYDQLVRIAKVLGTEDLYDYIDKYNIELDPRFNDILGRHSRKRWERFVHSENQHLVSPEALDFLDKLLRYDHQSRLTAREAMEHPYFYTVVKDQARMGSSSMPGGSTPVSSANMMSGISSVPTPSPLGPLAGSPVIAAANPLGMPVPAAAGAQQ
T1 sequence (P67870 whole entry partner): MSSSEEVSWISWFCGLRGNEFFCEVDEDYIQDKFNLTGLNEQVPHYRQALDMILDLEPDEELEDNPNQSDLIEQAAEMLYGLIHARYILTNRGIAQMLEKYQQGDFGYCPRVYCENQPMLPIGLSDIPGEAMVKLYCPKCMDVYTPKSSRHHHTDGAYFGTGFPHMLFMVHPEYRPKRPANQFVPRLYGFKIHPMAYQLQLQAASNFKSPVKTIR
Chain of recombinant PIM-1 (P11309 whole entry): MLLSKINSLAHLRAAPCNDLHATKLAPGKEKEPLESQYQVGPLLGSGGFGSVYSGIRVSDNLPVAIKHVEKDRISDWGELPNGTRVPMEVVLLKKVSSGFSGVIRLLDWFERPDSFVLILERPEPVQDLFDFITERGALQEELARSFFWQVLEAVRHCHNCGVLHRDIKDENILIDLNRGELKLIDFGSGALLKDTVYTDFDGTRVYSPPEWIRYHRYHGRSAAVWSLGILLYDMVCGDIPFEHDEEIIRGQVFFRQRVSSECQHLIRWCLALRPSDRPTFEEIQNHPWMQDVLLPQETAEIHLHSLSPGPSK
Chain of recombinant human PIM2 (Q9P1W9 whole entry): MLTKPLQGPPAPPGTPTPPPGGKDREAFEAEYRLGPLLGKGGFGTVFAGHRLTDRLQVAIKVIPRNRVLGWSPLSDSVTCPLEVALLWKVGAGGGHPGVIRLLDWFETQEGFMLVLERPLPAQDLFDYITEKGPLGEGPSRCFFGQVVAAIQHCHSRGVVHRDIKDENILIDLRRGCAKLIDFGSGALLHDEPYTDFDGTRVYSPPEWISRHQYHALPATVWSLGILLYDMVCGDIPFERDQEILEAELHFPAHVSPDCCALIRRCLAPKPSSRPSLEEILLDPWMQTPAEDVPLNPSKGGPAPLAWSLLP

IC50 ([1]; Table 1) [nM]	IC50 ([2]; Table 1) [nM]	IC50 [3] [µM]	IC50 [4] [µM]	IC50 [5] [µM]	IC50 [6] [µM]	IC50 [7] [µM]	IC50 ([1]; Table 5) [nM]	IC50 ([2]; Table 5) [nM]	IC50 ([8]; Table 5) [nM]	IC50 ([8]; Table 1) [nM]	SMILES
196	19	> 10	> 1	> 10	> 10	> 30	–	–	–	–	NCCN1CCN(C(=O)c2ccc(-c3ccc(/C=C4\SC(=S)NC4=O)o3)cc2)CC1
12	13	> 10	9.5	> 10	> 10	> 30	–	–	–	–	O=C1NC(=S)S/C1=C\c1ccc(-c2cccc(C(=O)N3CC[C@H](F)C3)c2)o1
412	9	> 10	> 10	> 10	> 10	> 30	–	–	–	–	O=C1NC(=S)S/C1=C\c1ccc(-c2cccc(C(=O)N3CCCNCC3)c2)o1
–	–	–	–	–	–	–	320	50	190	–	CN1CCCN(c2cncc(-c3ccc(/C=C4\SC(=S)NC4=O)c(F)c3)n2)CC1
–	74	> 10	> 10	> 10	> 10	> 30	–	–	–	704	O=C1NC(=S)S/C1=C\c1ccc(-c2cccc(C(=O)NCCN3CCCC3)c2)o1
551	86	> 10	> 10	> 10	> 10	> 30	–	–	–	–	O=C1NC(=S)S/C1=C\c1ccc(-c2cccc(C(=O)NN3CCCCC3)c2)o1
131	6	> 10	> 10	> 10	> 10	> 30	–	–	–	–	CCN(CC)CCNC(=O)c1ccc(-c2ccc(/C=C3\SC(=S)NC3=O)o2)cc1
123	31	> 10	> 10	> 10	> 10	> 30	–	–	–	–	COCCNC(=O)c1cccc(-c2ccc(/C=C3\SC(=S)NC3=O)o2)c1
37	12	> 10	0.175	> 10	> 10	> 30	–	–	–	–	O=C1NC(=S)S/C1=C\c1ccc(-c2cccc(C(=O)N3CCC[C@H]3CO)c2)o1
94	36	> 10	> 10	> 10	> 10	> 30	–	–	–	–	CN(C)NC(=O)c1cccc(-c2ccc(/C=C3\SC(=S)NC3=O)o2)c1
–	–	–	–	–	–	–	> 5000	1180	> 2500	–	CN1CCCN(c2cncc(-c3ccc(/C=C4/SC(=O)NC4=O)c(F)c3)n2)CC1
288	162	> 10	> 10	> 10	> 10	> 30	–	–	–	–	O=C1NC(=S)S/C1=C\c1ccc(-c2cccc(C(=O)NN3CCN(CCO)CC3)c2)o1

From US20100331315A1, “RHODANINES AND RELATED HETEROCYCLES AS KINASE INHIBITORS” (priority 2009, published 2010)
